Tests used:
[1] = Influence of pH and pH adjuster on stability of RV-MP solution (HPLC impurities, 60° C./75% RH); assay type: physicochemical
Procedure: Remdesivir monophosphate disodium salt is the salt of nucleoside monophosphate. The stability of remdesivir monophosphate disodium salt (referred to as RV-MP) is highly dependent on the pH. Four samples were prepared, having pH 3.0, 4.0, 5.0, 6.0. 23 ml of purified water was adjusted to the target pH with hydrochloric acid. RV-MP according to the amounts provided in table 5 was added to the solution, and the resulting mixture was sonicated until completely dissolved. The resulting mixture was adjusted to the target pH with hydrochloric acid. Finally, purified water was added to provide a final weight of 25.0 g.
(§1) Impurities Detection Method: HPLC Detection Method • Column: YMC-triart C 18, 4.6*150 mm, S-5 μm, 12 nm; • Flow: 0.8 ml/min • Injection volume: […], • Column temperature: 40° C. • A: Weigh 2.7 g of sodium dihydrogen phosphate, add 1 L of purified water, stir to dissolve, and filter to obtain. • B: Methanol
The stability of remdesivir monophosphate disodium salt (referred to as RV-MP) is highly dependent on the pH. Five samples were prepared, having pH 3.0, 3.2, 3.5, 3.8, 4.0. 23 ml of purified water was adjusted to the target pH with citric acid. RV-MP according to the amounts provided in Table 10 was added to the solution, and the resulting mixture was sonicated until completely dissolved. The resulting mixture was adjusted to the target pH with citric acid. Finally, purified water was added to provide a final weight of 25.0 g.
The stability of remdesivir monophosphate disodium salt (referred to as RV-MP) is highly dependent on the pH. Five samples were prepared, having pH 3.0, 3.2, 3.5, 3.8, 4.0. 23 ml of purified water was adjusted to the target pH with HCl. RV-MP according to the amounts provided in Table 16 was added to the solution, and the resulting mixture was sonicated until completely dissolved. Then the resulting mixture was adjusted to the target pH with HCl. Finally, purified water was added to provide a final weight of 25.0 g.

[2] = Strong degradation test under light conditions (HPLC impurities); assay type: physicochemical
Procedure: as §1
Sample 15: 60 mg RV_MP dissolved in 100 ml purified water.
The sample 15 was placed in light conditions, and the placement time was 2 hours, 4 hours, 6 hours, 24 hours, 48 hours, 72 hours, and the impurity detection method in Example 5 was used to detect the samples.
The impurity detection method of the present invention is the same as the impurity detection method in Example 5.

remdesivir monophosphate disodium salt [RV-MP]
Stability of RV-MP solution at 60° C. ([1]; 60° C.): unstable
Stability of RV-MP formulations ([1]; adjusting pH using HCl): stable at pH 3.0-4.0
pH of highest stability ([1]; adjusting pH using HCl, pH 3.0-6.0 tested): 3.0
Stability of resulting solution ([1]; using HCl to adjust the pH, compared with citric acid): more stable
Stability of resulting solution ([1]; using citric acid to adjust the pH, especially at pH3.0): unstable
Stability of RV-MP solution under light condition [2]: unstable
